Test results: patent US20230096761A1, “NOVEL COMPOSITION BASED ON POLYCAFFEOYLQUINIC ACIDS, COSMETIC USE THEREOF AND COSMETIC COMPOSITIONS COMPRISING SAME” (Societe D'Exploitation De Produits Pour Les Industries …, priority 2018, published 2023)
Marks after values point to notes of the source that are not given here.

Tested on: normal human keratinocytes
Assay: Keratinocyte differentiation: filaggrin immunolabeling normalized to nuclei
Type: cell-based
Details: positive reference 1 mMol/L, 72 hours
Description: To do this, normal human keratinocytes were cultured at 37° C. and 5% CO2. After a period of 4 days, they were treated with the products whose action it is desired to evaluate. After culturing for a further 72 hours at 37° C. and 5% CO2 with the test products, the cell lawns were rinsed, dried and then fixed with glacial methanol. Filaggrin, a keratinocyte differentiation marker, was detected and quantified by fluorescent immunolabeling with an anti-filaggrin primary antibody and a fluorescent secondary antibody to reveal the former. The nuclei were detected and quantified by marking with Hoechst, a fluorescent stain which binds to DNA and thus labels the nuclei. This last labeling was performed to normalize the results obtained previously on filaggrin. An increase in the filaggrin (area of labeling)/nuclei (area of labeling) ratio is evidence of an increase in the differentiation of the epidermal keratinocytes, and consequently of reinforcement of the barrier effect of the epidermis, which constitutes one of the factors of the reinforcement of the state of moisturization of the skin. An increase in keratinocyte differentiation makes it possible to reinforce the barrier effect of the human epidermis, and consequently to decrease the unesthetic effects that may be caused by the dehydration of human skin.

## [Ca+2].[Cl-].[Cl-] [CaCl2]
  Filaggrin (area of labeling)/nuclei (area of labeling): 0.0245 ± 0.0045
filaggrin/nuclei
  % stimulation vs control: 621* %
